Test results: patent publication US9725442B2, “Heterocyclic derivative having PGD2 receptor antagonist activity” (Shionogi & Co., Ltd., priority 2011, dated 2017)
Like-named read-outs stand apart in the source and are kept apart here.

Assays:
[1] = target: T1, CRTH2 (Homo sapiens (Human), UniProt Q9Y5Y4); assay: CRTH2 receptor binding inhibitory activity ([3H]-PGD2 displacement, membranes of CRTH2-expressing K562 cell); settings: [3H]-PGD2 displacement, membrane of CRTH2-expressing K562 cell, read-out: Ki
T1 sequence (Q9Y5Y4 whole entry): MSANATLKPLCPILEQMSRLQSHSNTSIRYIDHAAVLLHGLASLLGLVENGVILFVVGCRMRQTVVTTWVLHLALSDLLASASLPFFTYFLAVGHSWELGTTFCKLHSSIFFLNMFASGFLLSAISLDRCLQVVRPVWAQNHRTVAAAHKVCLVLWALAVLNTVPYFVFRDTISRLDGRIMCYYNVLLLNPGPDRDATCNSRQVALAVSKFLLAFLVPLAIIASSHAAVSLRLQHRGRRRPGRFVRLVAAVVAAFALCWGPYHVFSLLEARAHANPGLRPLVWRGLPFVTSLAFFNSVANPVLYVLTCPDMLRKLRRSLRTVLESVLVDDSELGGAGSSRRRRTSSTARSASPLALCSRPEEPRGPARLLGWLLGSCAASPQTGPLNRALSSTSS
Method in brief: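 Incubation ran 60 min at room temperature using 20 μg/well membrane from CRTH2-expressing K562 cells in pH 7.4 Tris/HCl (50 mM) with 10 mM MgCl2.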

[2] = target: T1, CRTH2; assay: CRTH2 inhibitory activity in human eosinophil (PGD2 induced eosinophil shape change); type: cell-based; settings: human peripheral blood, 40 nM PGD2, forward scatter; read-out: IC50, inhibition of PGD2 induced eosinophil shape change
Method: CRTH2 inhibitory activity in human eosinophil was determined as inhibitory activity of PGD2 induced eosinophil shape change.
Human peripheral blood was mixed with compounds of the present invention at 37° C. After 5 min, the blood was treated with 40 nM of PGD2 for 10 min and fixed. The blood was hemolyzed and centrifuged. Blood cells were resuspended in PBS and measured forward scatter (FS) using flow cytometer (FACSAria). Inhibition ratio was defined by comparing FS with and without compound, and IC50 for each compound was calculated from inhibitory curve.

[3] = Solubility test (1% DMSO addition, artificial intestinal juice pH 6.8); type: physicochemical; settings: fassgf or other biorelevant, kinetic from dmso stock, artificial intestinal juice pH 6.8, 16 hours at 25° C.
Method: A 10 mmol/L solution of the compound of the present invention is prepared with DMSO, and 6 μL of the compound solution is added to 594 μL of an artificial intestinal juice (water and 118 mL of 0.2 mol/L NaOH reagent are added to 250 mL of 0.2 mol/L potassium dihydrogen phosphate reagent to reach 1000 mL) with a pH of 6.8. The mixture is left standing for 16 hours at 25° C., and the mixture is vacuum-filtered. The filtrate is two-fold diluted with methanol/water=1/1 (V/V), and the compound concentration in the filtrate is measured with HPLC or LC/MS/MS by the absolute calibration method.

[4] = target: Human DP1 receptor (Homo sapiens (Human), UniProt Q13258); assay: Human DP1 inhibitory activity in DP1-expressing cell (PGD2-induced cAMP); type: cell-based
Human DP1 receptor, sequence (Q13258 whole entry): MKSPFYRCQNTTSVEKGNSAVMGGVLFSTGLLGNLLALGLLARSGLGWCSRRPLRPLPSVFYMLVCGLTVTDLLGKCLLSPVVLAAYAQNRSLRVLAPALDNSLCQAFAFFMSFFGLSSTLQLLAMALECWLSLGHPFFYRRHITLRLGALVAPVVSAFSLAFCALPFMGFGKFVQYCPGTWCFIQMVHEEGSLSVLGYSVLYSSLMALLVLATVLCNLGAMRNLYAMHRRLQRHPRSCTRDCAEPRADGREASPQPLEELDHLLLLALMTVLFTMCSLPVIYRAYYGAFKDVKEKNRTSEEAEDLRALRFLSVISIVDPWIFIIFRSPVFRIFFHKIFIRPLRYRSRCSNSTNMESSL
Method: Compounds were categorized as AA (cAMP is less than 100 nM) and A (cAMP is more than 100 nM and less than 5000 nM) as shown in Table 99 and 100.

[5] = target: DP receptor (Homo sapiens (Human), UniProt Q13258); assay: DP inhibitory activity in human platelets (PGD2-induced cAMP increase in platelet rich plasma, HTRF); type: cell-based; settings: IC50 of PGD2 (300 nM)-induced cAMP increase, read-out: PRP
DP receptor, sequence (Q13258 whole entry): as above
Method: Thirty milliliter of blood was drown from healthy human into a syringe preloaded with 1/9 volume of 3.8% citrate sodium. The blood was centrifuged with 180 g for 10 min at room temperature and the upper plasma layer was collected as platelet rich plasma (PRP). The PRP was transferred to plate and treated with 3-isobutyl-1-methylxanthin (IBMX; […]) for 5 min. Then the compounds of the present invention were added to the plate and after 10 min, 300 nM of PGD2 was added. The reaction was stopped with 1 mmol/l hydrogenchlolide after 2 min of PGD2 addition, and platelet was lysed by adding 12% Triton X-100. The concentration of cAMP in the supernatant of the platelet lysate was quantified using homogenous time resolved fluorescence (HTRF). Inhibition ratio was defined by cAMP increase with and without compound, and […] for each compound was calculated from inhibitory curve.

[6] = target: T1, CRTH2; assay: CRTH2 inhibitory activity in CRTH2-expressing cells (PGD2-induced intracellular calcium increase, K562); type: cell-based; settings: 200 nM PGD2, read-out: IC50, inhibition of intracellular calcium concentration increase induced by PGD2
Method: CRTH2 inhibitory activities of compounds were determined as inhibition activity of intra-cellular calcium concentration increase induced by PGD2 in CRTH2-expressing cells.
CRTH2-expressing K562 cells were suspended at concentration of 2×10^6 cells/ml in buffer (10 mM HEPES, pH 7.4, 0.1% Bovine serum albumin). Cells were incubated with […] (4 μM) for 30 min at room temperature. Cells were washed, resuspended and mixed with various concentration of compounds of the present invention. After 2 min, cells were treated with 200 nM of PGD2. Then intracellular calcium concentration was measured using intracellular ion analyzer (FDSS3000). Inhibition ratio was defined by comparing intracellular calcium concentration increase with and without compound, and IC50 for each compound was calculated from inhibitory curve.

[7] = target: CYP3A4 enzyme expressed in Escherichia coli (Homo sapiens (Human), UniProt P08684); assay: CYP3A4 fluorescent MBI test; type: in vitro ADME; settings: pre-reaction time 0 or 30 minutes, substrate 7-BFC; read-out: CYP3A4 MBI, difference between IC50 values with and without preincubation
CYP3A4 enzyme expressed in Escherichia coli, sequence (P08684 whole entry): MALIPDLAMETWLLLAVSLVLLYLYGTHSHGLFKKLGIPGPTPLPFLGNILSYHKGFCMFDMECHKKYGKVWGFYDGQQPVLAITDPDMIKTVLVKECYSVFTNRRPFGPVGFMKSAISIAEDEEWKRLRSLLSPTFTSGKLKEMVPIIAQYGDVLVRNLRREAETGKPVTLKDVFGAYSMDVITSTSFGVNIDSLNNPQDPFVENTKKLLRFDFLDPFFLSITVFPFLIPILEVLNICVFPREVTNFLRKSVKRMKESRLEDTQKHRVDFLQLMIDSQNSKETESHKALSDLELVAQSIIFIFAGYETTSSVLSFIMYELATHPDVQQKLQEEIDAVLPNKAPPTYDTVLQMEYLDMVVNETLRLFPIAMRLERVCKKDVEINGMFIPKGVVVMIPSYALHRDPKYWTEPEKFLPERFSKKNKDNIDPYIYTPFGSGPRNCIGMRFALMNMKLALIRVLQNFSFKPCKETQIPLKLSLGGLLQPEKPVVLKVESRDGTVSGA
Method: The CYP3A4 fluorescent MBI test is a test of investigating enhancement of CYP3A4 inhibition of a compound by a metabolism reaction, and the test was performed using, as CYP3A4 enzyme expressed in Escherichia coli and employing, as an index, a reaction in which 7-benzyloxytrifluoromethylcoumarin (7-BFC) is debenzylated by the CYP3A4 enzyme to produce a metabolite, 7-hydroxytrifluoromethylcoumarin (HFC) emitting fluorescent light.
The reaction conditions were as follows: substrate, 5.6 μmol/L 7-BFC; pre-reaction time, 0 or 30 minutes; reaction time, 15 minutes; reaction temperature, 25° C. (room temperature); CYP3A4 content (expressed in Escherichia coli), at pre-reaction […], at reaction […] (at 10-fold dilution); concentration of a compound of the present, 0.625, 1.25, 2.5, 5, 10, 20 μmol/L (six points).
An enzyme in a K-Pi buffer (pH 7.4) and a compound solution of the present invention as a pre-reaction mixture were added to a 96-well plate at the composition of the pre-reaction, a part of it was transferred to another 96-well plate so that it was 1/10 diluted by a substrate in a K-Pi buffer, NADPH as a co-factor was added to initiate a reaction as an index (without preincubation) and, after a predetermined time of a reaction, acetonitrile/0.5 mol/L Tris(trishydroxyaminomethane)=4/1 (V/V) was added to stop the reaction. In addition, NADPH was added to a remaining preincubation solution to initiate a preincubation (with preincubation) and, after a predetermined time of a preincubation, a part was transferred to another plate so that it was 1/10 diluted with a substrate and a K-Pi buffer to initiate a reaction as an index. After a predetermined time of a reaction, acetonitrile/0.5 mol/L Tris(trishydroxyaminomethane)=4/1 (V/V) was added to stop the reaction. For the plate on which each index reaction had been performed, a fluorescent value of 7-HFC which is a metabolite was measured with a fluorescent plate reader. (Ex=420 nm, Em=535 nm).

[8] = CRTH2 receptor binding, categorized AAAA/AAA
[9] = IC50 of PGD2 (60 nM)-induced cAMP increase, human DP1 receptor expressing Jurkut cell
[10] = category of cAMP IC50, human DP1 receptor expressing Jurkut cell

Compound	Ki [1, 8] [nM]	Ki [1] [nM]	IC50 [2] [nM]	solubility at 16 h [3] [µM]	IC50 [4, 9] [nM]	IC50 [4, 10] [nM]	IC50 [5] [nM]	IC50 [6] [nM]	difference in IC50 with vs without preincubation [7] [nM]
CC(C)Oc1ccc(S(=O)(=O)N2C[C@H](n3nc(CC(=O)O)c4ccc(F)cc43)[C@@](C)(F)C2)cc1 (racemic) [Compound I-85]	< 100	2.8	33	> 50	19	< 100	210	140	–
CO/N=C/[C@H]1C[C@@H](n2nc(CC(=O)O)c3ccc(F)cc32)CN1S(=O)(=O)c1ccc(OC(C)C)cc1 [Compound I-19]	< 100	62	–	–	56	< 100	260	–	–
CCOc1ccc(S(=O)(=O)N2C[C@@H](C)[C@@H](n3c(C)c(CC(=O)O)c4ccccc43)C2)cc1 [Compound I-329]	< 100	–	–	–	–	< 100	–	–	≤ 3000
CCOc1ccc(S(=O)(=O)N2C[C@@H](C)[C@@H](n3nc(CC(=O)O)c4c(C)cccc43)C2)cc1 [Compound I-205]	100 to 5000	–	–	–	13	< 100	70	–	–
CCOc1ccc(S(=O)(=O)N2C[C@@H](C)[C@@H](n3nc(CC(=O)O)c4ccccc43)C2)cc1 [Compound I-97]	< 100	13	68	–	–	< 100	–	92	–
CC(C)Oc1ccc(S(=O)(=O)N2C[C@@H](C)[C@H](n3nc(CC(=O)O)c4cc(Br)c(F)cc43)C2)cc1 [Compound I-156]	100 to 5000	–	–	–	3	< 100	110	–	–
CC(C)Oc1ccc(S(=O)(=O)N2C[C@@H](C)[C@@H](n3nc(CC(=O)O)c4ccc(F)cc43)C2)cn1 [Compound I-123]	< 100	4.3	60	–	31	< 100	120	91	–
CCOc1ccc(S(=O)(=O)N2C[C@@H](C)[C@@H](n3nc(CC(=O)O)c4ccccc43)C2)s1 [Compound I-177]	< 100	15	–	–	58	< 100	44	–	–
CCOc1ccc(S(=O)(=O)N2C[C@@H](C)[C@@H](n3nc(CC(=O)O)c4ccc(N5CCCC5)cc43)C2)cn1 [Compound I-222]	100 to 5000	100	–	–	95	< 100	140	–	–
CC(C)Oc1ccc(S(=O)(=O)N2C[C@@H](C)[C@@H](n3nc(CC(=O)O)c4ccc(C(F)(F)F)cc43)C2)cn1 [Compound I-131]	< 100	7.4	–	–	31	< 100	190	210	–
CCOc1ccc(S(=O)(=O)N2C[C@@H](C)[C@@H](n3nc(CC(=O)O)c4cc(C#N)ccc43)C2)cn1 [Compound I-159]	100 to 5000	–	–	–	140	100 to 5000	68	–	–
CC(C)Oc1ccc(S(=O)(=O)N2C[C@@H](C)[C@@H](n3nc(CC(=O)O)c4ccc(C(F)(F)F)cc43)C2)cc1 [Compound I-130]	< 100	4.7	46	–	10	< 100	240	73	–
CC(C)Oc1ccc(S(=O)(=O)N2C[C@@H](C)[C@@H](n3cc(CC(=O)O)c4ccc(F)cc43)C2)cc1 [Compound I-144]	< 100	3.1	–	–	4.7	< 100	82	–	–
CCOc1ccc(S(=O)(=O)N2C[C@@H](C)[C@@H](n3nc(CC(=O)O)c4ccccc43)C2)c(N)c1 [Compound I-325]	< 100	28	–	–	24	< 100	210	–	–
CC(C)Oc1ccc(S(=O)(=O)N2C[C@H](C)[C@@H](n3nc(CC(=O)O)c4ccc(F)cc43)C2)cc1 [Compound I-31]	< 100	–	13	–	–	< 100	–	–	–
C[C@@H]1CN(S(=O)(=O)c2ccc(OC(F)(F)F)cc2)C[C@@H]1n1nc(CC(=O)O)c2ccc(Cl)cc21 [Compound I-142]	< 100	11	–	–	9.9	< 100	92	–	–
CCOc1ccc(S(=O)(=O)N2C[C@@H](C)[C@@H](n3nc(CC(=O)O)c4ccccc43)C2)c(F)c1 [Compound I-245]	< 100	–	–	–	27	< 100	68	–	–
CCOc1ccc(S(=O)(=O)N2C[C@@H](C)[C@@H](n3cc(CC(=O)O)c4ccc(C#N)cc43)C2)cc1 [Compound I-256]	< 100	–	–	–	–	< 100	–	–	≤ 3000
Cc1c(CC(=O)O)c2ccccc2n1[C@H]1CN(S(=O)(=O)c2ccc(F)cc2)C[C@H]1C [Compound I-287]	< 100	–	–	–	–	100 to 5000	–	–	≤ 3000
CC(C)Oc1ccc(S(=O)(=O)N2C[C@H](n3nc(CC(=O)O)c4ccc(F)cc43)C[C@@H]2Cn2cccn2)cc1 [Compound I-21]	< 100	10	–	–	59	< 100	180	–	–
